Assay results as given in article PMC6476926, “Dichloro-Phenyl-Benzotriazoles: A New Selective Class of Human Respiratory Syncytial Virus Entry Inhibitors” (Frontiers in Chemistry, 2019).

Columns and labels:
[1] = in vitro; conditions: cattle (Bos taurus)
[2] = Cytotoxicity, MTT method, MT-4 cells; conditions: human
[3] = test system: YFV; assay: microbe, parasite or virus in culture; type: cell-based; conditions: Yellow fever virus, BHK, read-out: EC50 YFV
[4] = test system: Sb-1, VSV, VV, HSV-1; assay: organism not typed; type: cell-based; conditions: Vero 76, read-out: EC50 Sb-1, VSV, VV, HSV-1
[5] = test system: RSV; assay: microbe, parasite or virus in culture; type: cell-based, Human Respiratory Syncytial Virus (RSV) strain A2; conditions: human respiratory syncytial virus, Vero 76, read-out: EC50 RSV
[6] = Cytotoxicity, MTT method, BHK cells; conditions: Syrian hamster (Mesocricetus auratus)
[7] = test system: BVDV; assay: microbe, parasite or virus in culture; type: cell-based; conditions: Bovine viral diarrhea virus isolates and strains, MDBK, read-out: EC50 BVDV
[8] = test system: Reo-1; assay: microbe, parasite or virus in culture; type: cell-based, Reovirus type-1 (Reo-1); conditions: Reovirus sp., BHK, read-out: EC50 Reo-1
[9] = Cytotoxicity, MTT method, Vero-76 cells; conditions: African green monkey (Cercopithecus aethiops)
[10] = test system: HIV-1IIIB; assay: microbe, parasite or virus in culture; type: cell-based, Human Immunodeficiency Virus type-1 (HIV-1); conditions: Human immunodeficiency virus 1, MT4, read-out: EC50 HIV-1IIIB
[11] = test system: CV-B5; assay: microbe, parasite or virus in culture; type: cell-based, Human Enterovirus B [coxsackie type B5 (CV-B5)]; conditions: Enterovirus B, CVB5, Vero 76, read-out: EC50 CV-B5

Compound | CC50 [1] | melting point | CC50 [2] | EC50 [3] | EC50 [4] | EC50 [5] | CC50 [6] | EC50 [7] | EC50 [8] | CC50 at 5 days [9] | EC50 [10] | EC50 [11]
O=C(Nc1ccc(-n2nc3cc(Cl)c(Cl)cc3n2)cc1)c1ccccc1 [8a, N-[4-(5,6-dichloro-2H-benzo[d][1,2,3]triazol-2-yl)phenyl]benzamide] | > 100 µM | > 290 °C | > 100 µM | > 100 µM | > 100 µM | > 100 µM | > 100 µM | > 100 µM | > 100 µM | > 100 µM | > 100 µM | > 100 µM
O=C(Nc1ccc(-n2nnc3cc(Cl)c(Cl)cc32)cc1)c1ccc([N+](=O)[O-])cc1 [7e, N-[4-(5,6-dichloro-1H-benzo[d][1,2,3]triazol-1-yl)phenyl]-4-nitrobenzamide] | > 100 µM | 238 to 240 °C | > 100 µM | > 96 µM | > 100 µM | 13 µM | 96 µM | > 100 µM | > 96 µM | > 100 µM | > 100 µM | > 100 µM
N#Cc1ccc(C(=O)Nc2ccc(-n3nnc4cc(Cl)c(Cl)cc43)cc2)cc1 [7h, N-[4-(5,6-dichloro-1H-benzo[d][1,2,3]triazol-1-yl)phenyl] 4-cyanobenzamide] | > 100 µM | 227 to 229 °C | > 100 µM | > 100 µM | > 100 µM | 11 µM | > 100 µM | > 100 µM | > 100 µM | > 100 µM | > 100 µM | > 100 µM
CCCC(=O)N(C(=O)CCC)c1ccc(-n2nnc3cc(Cl)c(Cl)cc32)cc1 [5d, N-butyryl-N-[4-(5,6-dichloro-1H-benzo[d][1,2,3]triazol-1-yl)phenyl] butyramide] | 14 µM | 202 to 204 °C | 35 µM | > 16 µM | > 20 µM | > 30 µM | 16 µM | > 14 µM | > 16 µM | 20 µM | > 35 µM | > 20 µM
CCC(=O)N(C(=O)CC)c1ccc(-n2nc3cc(Cl)c(Cl)cc3n2)cc1 [6e, N-propionyl-N-[4-(5,6-dichloro-2H-benzo[d][1,2,3]triazol-2-yl)phenyl] propionamide] | 72 µM | 238 to 240 °C | 15 µM | > 26 µM | > 100 µM | 6 µM | 26 µM | > 72 µM | > 26 µM | > 100 µM | > 15 µM | 61 µM
CCC(=O)Nc1ccc(-n2nnc3cc(Cl)c(Cl)cc32)cc1 [5b, N-[4-(5,6-dichloro-1H-benzo[d][1,2,3]triazol-1-yl)phenyl]propionamide] | > 100 µM | 175 to 177 °C | 28 µM | > 54 µM | > 30 µM | 4 µM | 54 µM | > 100 µM | > 54 µM | 30 µM | > 28 µM | > 30 µM
CC(=O)Nc1ccc(-n2nc3cc(Cl)c(Cl)cc3n2)cc1 [6a, N-[4-(5,6-dichloro-2H-benzo[d][1,2,3]triazol-2-yl)phenyl]acetamide] | > 100 µM | > 290 °C | > 100 µM | > 100 µM | > 100 µM | > 100 µM | > 100 µM | > 100 µM | > 100 µM | > 100 µM | > 100 µM | > 100 µM
O=C(Nc1ccc(-n2nc3cc(Cl)c(Cl)cc3n2)cc1)Nc1cccc2ccccc12 [10k, 1-[4-(5,6-dichloro-2H-benzo[d][1,2,3]triazol-2-yl)phenyl]-3-naphtylurea] | > 100 µM | > 290 °C | > 100 µM | > 100 µM | > 100 µM | > 100 µM | > 100 µM | > 100 µM | > 100 µM | > 100 µM | > 100 µM | > 100 µM
N#Cc1ccc(C(=O)Nc2ccc(-n3nc4cc(Cl)c(Cl)cc4n3)cc2)cc1 [8h, N-[4-(5,6-dichloro-2H-benzo[d][1,2,3]triazol-2-yl)phenyl] 4-cyanobenzamide] | > 100 µM | 263 to 265 °C | > 100 µM | > 100 µM | > 100 µM | 60 µM | > 100 µM | 11 µM | > 100 µM | > 100 µM | > 100 µM | > 100 µM
O=C(Nc1ccc(-n2nc3cc(Cl)c(Cl)cc3n2)cc1)c1ccc([N+](=O)[O-])cc1 [8e, N-[4-(5,6-dichloro-2H-benzo[d][1,2,3]triazol-2-yl)phenyl]-4-nitrobenzamide] | > 100 µM | > 297 °C | > 100 µM | > 68 µM | > 100 µM | 33 µM | 68 µM | 4 µM | > 68 µM | > 100 µM | > 100 µM | > 100 µM
Cc1ccc(C(=O)Nc2ccc(-n3nnc4cc(Cl)c(Cl)cc43)cc2)cc1 [7b, N-[4-(5,6-dichloro-1H-benzo[d][1,2,3]triazol-1-yl)phenyl]-4-methylbenzamide] | > 100 µM | 226 to 228 °C | > 100 µM | > 100 µM | > 100 µM | > 100 µM | > 100 µM | > 100 µM | > 100 µM | > 100 µM | > 100 µM | > 100 µM
Cc1ccc(C(=O)Nc2ccc(-n3nc4cc(Cl)c(Cl)cc4n3)cc2)cc1 [8b, N-[4-(5,6-dichloro-2H-benzo[d][1,2,3]triazol-2-yl)phenyl]-4-methylbenzamide] | > 100 µM | 210 to 213 °C | > 100 µM | 73 µM | > 100 µM | 27 µM | > 100 µM | > 100 µM | > 100 µM | > 100 µM | > 100 µM | > 100 µM
O=C(Nc1ccc(Cl)cc1)Nc1ccc(-n2nc3cc(Cl)c(Cl)cc3n2)cc1 [10h, 1-[4-(5,6-dichloro-2H-benzo[d][1,2,3]triazol-2-yl)phenyl]-3-(4-chlorophenyl)urea] | > 100 µM | > 290 °C | > 100 µM | > 100 µM | > 100 µM | > 100 µM | > 100 µM | > 100 µM | > 100 µM | > 100 µM | > 100 µM | > 100 µM
